Assays:
Assay type in all cases: in vivo
barnyard grass [1] = assay: Test Example 1: weedkilling efficacy, preemergent weed treatment in the submerged state; A: barnyard grass; details: treatment dosage 252 g/ha
Procedure, shortened: (§1)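 Submerged pre-emergence treatment, water-surface application of compound emulsion at g/ha dosages; 4 cm flooded alluvial soil, weeds sown and 2.5-leaf rice transplanted same day. Rated after 3 weeks, greenhouse.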

bulrush [2] = assay: Test Example 1: weedkilling efficacy, preemergent weed treatment in the submerged state; B: bulrush; details: treatment dosage 252 g/ha
Procedure, shortened: as §1

oval-leafed pondweed [3] = assay: Test Example 1: weedkilling efficacy, preemergent weed treatment in the submerged state; C: oval-leafed pondweed; details: treatment dosage 252 g/ha
Procedure, shortened: as §1

transplanted rice = assay: Test Example 1: preemergent weed treatment in the submerged state, effect on crop; a: transplanted rice; details: treatment dosage 252 g/ha
Procedure, shortened: as §1

barnyard grass [4] = assay: Test Example 2: weedkilling efficacy, growth period weed treatment in the submerged state; A: barnyard grass; details: treatment dosage 252 g/ha
Procedure, shortened: (§2)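 Seedlings at 1-2 leaves in 4 cm-deep submerged alluvial soil received emulsion formulations on the water surface, dosed per hectare; effects were judged 3 weeks on.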

bulrush [5] = assay: Test Example 2: weedkilling efficacy, growth period weed treatment in the submerged state; B: bulrush; details: treatment dosage 252 g/ha
Procedure, shortened: as §2

oval-leafed pondweed [6] = assay: Test Example 2: weedkilling efficacy, growth period weed treatment in the submerged state; C: oval-leafed pondweed; details: treatment dosage 252 g/ha
Procedure, shortened: as §2

crabgrass = assay: Test Example 3: weedkilling efficacy through soil treatment; D: crabgrass; details: soil treatment, treatment dosage 315 g/ha
Procedure, shortened: (§3)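 Crop and weed responses were judged three weeks after a uniform surface spray of the water-diluted emulsion at the given g/ha rate. Seeds sat beneath about 1.5 cm of sterilized diluvial soil, and boxes stood in a greenhouse at 25 to 30° C.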

green foxtail = assay: Test Example 3: weedkilling efficacy through soil treatment; E: green foxtail; details: soil treatment, treatment dosage 315 g/ha
Procedure, shortened: as §3

wild oat = assay: Test Example 3: weedkilling efficacy through soil treatment; G: wild oat; details: soil treatment, treatment dosage 315 g/ha
Procedure, shortened: as §3

black-grass = assay: Test Example 3: weedkilling efficacy through soil treatment; H: black-grass; details: soil treatment, treatment dosage 315 g/ha
Procedure, shortened: as §3

Italian ryegrass = assay: Test Example 3: weedkilling efficacy through soil treatment; I: Italian ryegrass; details: soil treatment, treatment dosage 315 g/ha
Procedure, shortened: as §3

Indian mallow = assay: Test Example 3: weedkilling efficacy through soil treatment; K: Indian mallow; details: soil treatment, treatment dosage 315 g/ha
Procedure, shortened: as §3

redroot pigweed = assay: Test Example 3: weedkilling efficacy through soil treatment; L: redroot pigweed; details: soil treatment, treatment dosage 315 g/ha
Procedure, shortened: as §3

fig-leafed goosefoot = assay: Test Example 3: weedkilling efficacy through soil treatment; M: fig-leafed goosefoot; details: soil treatment, treatment dosage 315 g/ha
Procedure, shortened: as §3

chickweed = assay: Test Example 3: weedkilling efficacy through soil treatment; N: chickweed; details: soil treatment, treatment dosage 315 g/ha
Procedure, shortened: as §3

birds-eye speedwell = assay: Test Example 3: weedkilling efficacy through soil treatment; p: birds-eye speedwell; details: soil treatment, treatment dosage 315 g/ha
Excerpt: Weedkilling Efficacy Test Through Soil Treatment
Sterilized diluvial soil was introduced into 21 cm long, 13 cm wide, 7 cm deep plastic boxes, and seeds of crabgrass, green foxtail, barnyard grass, wild oat, black-grass, Italian ryegrass, common wind-grass, Indian mallow, redroot pigweed, fig-leafed goosefoot, chickweed, catchweed, birds-eye speedwell, corn, soybean, rice, wheat, beet and rapeseed were each spot-sown, and covered with about 1.5 cm of soil. Next, emulsions of compounds of the present invention prepared according to compounding example 2 were diluted with water to give the specified dosages, and applied uniformly onto the soil surface with a small sprayer. The plants were grown by placing the plastic boxes in a greenhouse at 25 to 30° C., and 3 weeks after the pesticide treatment the effect on each type of plant was investigated on the basis of the assessment criteria of test example 1.
A: barnyard grass, B: bulrush, C: oval-leafed pondweed, D: crabgrass, E: green foxtail, F: barnyard grass, G: wild oat, H: black-grass, I: Italian ryegrass, J: common wind-grass, K: Indian mallow, L: redroot pigweed, M: fig-leafed goosefoot, N: chickweed, O: catchweed, p: birds-eye speedwell, a: transplanted rice, b: directly sown rice, c: corn, d: soybean, e: wheat, f: beet, g: rapeseed
Further, pesticide dosage (g/ha) indicates the concentration regulated such that treatment was with only the stated number of grams (g), when calculated per hectare (ha).

directly sown rice = assay: Test Example 3: soil treatment, effect on crop; b: directly sown rice; details: soil treatment, treatment dosage 315 g/ha
Procedure, shortened: as §3

corn = assay: Test Example 3: soil treatment, effect on crop; c: corn; details: soil treatment, treatment dosage 315 g/ha
Procedure, shortened: as §3

soybean = assay: Test Example 3: soil treatment, effect on crop; d: soybean; details: soil treatment, treatment dosage 315 g/ha
Procedure, shortened: as §3

wheat = assay: Test Example 3: soil treatment, effect on crop; e: wheat; details: soil treatment, treatment dosage 315 g/ha
Procedure, shortened: as §3

beet = assay: Test Example 3: soil treatment, effect on crop; f: beet; details: soil treatment, treatment dosage 315 g/ha
Procedure, shortened: as §3

Structure (SMILES) | A: barnyard grass, weed kill grade (barnyard grass [1]) | B: bulrush, weed kill grade (bulrush [2]) | C: oval-leafed pondweed, weed kill grade (oval-leafed pondweed [3]) | a: transplanted rice, effect on crop grade (transplanted rice) | A (barnyard grass) weedkilling efficacy grade (barnyard grass [4]) | B (bulrush) weedkilling efficacy grade (bulrush [5]) | C (oval-leafed pondweed) weedkilling efficacy grade (oval-leafed pondweed [6]) | D: crabgrass, weedkilling efficacy grade (crabgrass) | E: green foxtail, weedkilling efficacy grade (green foxtail) | G: wild oat, weedkilling efficacy grade (wild oat) | H: black-grass, weedkilling efficacy grade (black-grass) | I: Italian ryegrass, weedkilling efficacy grade (Italian ryegrass) | K: Indian mallow, weedkilling efficacy grade (Indian mallow) | L: redroot pigweed, weedkilling efficacy grade (redroot pigweed) | M: fig-leafed goosefoot, weedkilling efficacy grade (fig-leafed goosefoot) | N: chickweed, weedkilling efficacy grade (chickweed) | P: birds-eye speedwell, weedkilling efficacy grade (birds-eye speedwell) | b: directly sown rice, effect on crop grade (directly sown rice) | c: corn, effect on crop grade (corn) | d: soybean, effect on crop grade (soybean) | other results
CC(C)(C(=O)Nc1ccccn1)N1COCN(c2ccccc2)C1=O [A-2-01] | 5 (weed kill ratio 90% or more, (practically complete withering)) | 5 (weed kill ratio 90% or more, (practically complete withering)) | 4 (weed kill ratio 70% or more, less than 90%) | 0 (weed kill ratio 5% or less (practically no effect)) | 3 (weed kill ratio 40% or more, less than 70%) | 5 (weed kill ratio 90% or more, (practically complete withering)) | 2 (weed kill ratio 20% or more, less than 40%) | 4 (weed kill ratio 70% or more, less than 90%) | 4 (weed kill ratio 70% or more, less than 90%) | 2 (weed kill ratio 20% or more, less than 40%) | 5 (weed kill ratio 90% or more, (practically complete withering)) | 5 (weed kill ratio 90% or more, (practically complete withering)) | 0 (weed kill ratio 5% or less (practically no effect)) | 3 (weed kill ratio 40% or more, less than 70%) | 4 (weed kill ratio 70% or more, less than 90%) | 3 (weed kill ratio 40% or more, less than 70%) | 5 (weed kill ratio 90% or more, (practically complete withering)) | 3 (weed kill ratio 40% or more, less than 70%) | 0 (weed kill ratio 5% or less (practically no effect)) | 2 (weed kill ratio 20% or more, less than 40%) | e: wheat, effect on crop grade (wheat): 0 (weed kill ratio 5% or less (practically no effect)); f: beet, effect on crop grade (beet): 0 (weed kill ratio 5% or less (practically no effect))
CC(C)(C(=O)Nc1cccc(F)n1)N1COCN(c2ccccc2)C1=O [A-2-05] | 5 (weed kill ratio 90% or more, (practically complete withering)) | 5 (weed kill ratio 90% or more, (practically complete withering)) | 5 (weed kill ratio 90% or more, (practically complete withering)) | 3 (weed kill ratio 40% or more, less than 70%) | 4 (weed kill ratio 70% or more, less than 90%) | 5 (weed kill ratio 90% or more, (practically complete withering)) | 4 (weed kill ratio 70% or more, less than 90%) | 5 (weed kill ratio 90% or more, (practically complete withering)) | 5 (weed kill ratio 90% or more, (practically complete withering)) | 5 (weed kill ratio 90% or more, (practically complete withering)) | 5 (weed kill ratio 90% or more, (practically complete withering)) | 5 (weed kill ratio 90% or more, (practically complete withering)) | 3 (weed kill ratio 40% or more, less than 70%) | 5 (weed kill ratio 90% or more, (practically complete withering)) | 4 (weed kill ratio 70% or more, less than 90%) | 4 (weed kill ratio 70% or more, less than 90%) | 5 (weed kill ratio 90% or more, (practically complete withering)) | 5 (weed kill ratio 90% or more, (practically complete withering)) | 4 (weed kill ratio 70% or more, less than 90%) | 4 (weed kill ratio 70% or more, less than 90%) | e: wheat, effect on crop grade (wheat): 4 (weed kill ratio 70% or more, less than 90%); f: beet, effect on crop grade (beet): 5 (weed kill ratio 90% or more, (practically complete withering))
CC(C)(C(=O)Nc1cc(Cl)ccn1)N1COCN(c2ccccc2)C1=O [A-2-06] | 5 (weed kill ratio 90% or more, (practically complete withering)) | 5 (weed kill ratio 90% or more, (practically complete withering)) | 5 (weed kill ratio 90% or more, (practically complete withering)) | 4 (weed kill ratio 70% or more, less than 90%) | 5 (weed kill ratio 90% or more, (practically complete withering)) | 5 (weed kill ratio 90% or more, (practically complete withering)) | 5 (weed kill ratio 90% or more, (practically complete withering)) | 5 (weed kill ratio 90% or more, (practically complete withering)) | 5 (weed kill ratio 90% or more, (practically complete withering)) | 5 (weed kill ratio 90% or more, (practically complete withering)) | 5 (weed kill ratio 90% or more, (practically complete withering)) | 5 (weed kill ratio 90% or more, (practically complete withering)) | 4 (weed kill ratio 70% or more, less than 90%) | 5 (weed kill ratio 90% or more, (practically complete withering)) | 4 (weed kill ratio 70% or more, less than 90%) | 4 (weed kill ratio 70% or more, less than 90%) | 5 (weed kill ratio 90% or more, (practically complete withering)) | 5 (weed kill ratio 90% or more, (practically complete withering)) | 3 (weed kill ratio 40% or more, less than 70%) | 3 (weed kill ratio 40% or more, less than 70%) | e: wheat, effect on crop grade (wheat): 1 (weed kill ratio 5% or more, less than 20%); f: beet, effect on crop grade (beet): 4 (weed kill ratio 70% or more, less than 90%)
